Assay [1] has as its target T1, GST-RIPK2 fusion protein (human RIPK2, amino acids 1-310) (Homo sapiens, UniProt O43353).
T1 construct: made in house; host or cells: baculovirus infected Sf9 cells
Put plainly: RIPK2 binding competition assay (TR-FRET, Tracer 199 displacement). Particulars: 10 nM Tracer 199, 1 nM GST-RIPK2, read-out: RIPK2 IC50. The text has this: The ability of selected compounds of Formula (I) to inhibit the binding of an Alexa647-labelled ATP-competitive kinase inhibitor to a GST-RIPK2 fusion protein was quantified employing the TR-FRET-based RIPK2 binding competition assay as described in the following paragraphs.
Recombinant fusion protein of N-terminal Glutathione-S-Transferase (GST) and a fragment of human RIPK2 (amino acids 1-310 of accession number 043353), expressed in baculovirus infected Sf9 cells, purified via glutathione affinity chromatography, was used as GST-RIPK2 fusion protein. Tracer 199 from Life Technologies (catalogue no. PR9115B) was used as Alexa647-labelled ATP-competitive kinase inhibitor.
For the assay, 50 nL of a 100-fold concentrated solution of each test compound in DMSO was pipetted into either a black low volume 384-well microtiter plate or a black 1536-well microtiter plate (both Greiner Bio-One, Frickenhausen, Germany), 3 μL solution of Tracer 199 (16.7 nM=>final concentration in 5 μL assay volume is 10 nM) in aqueous assay buffer (25 mM Tris/HCl pH 7.5, 10 mM magnesium chloride (MgCl2), 5 mM β-glycerophosphate, 2.5 mM dithiothreitol (DTT), 0.5 mM ethylene glycol-bis(2-aminoethylether)-N,N,N′,N′-tetraacetic acid (EGTA), 0.5 mM sodium ortho-vanadate, 0.01% (w/v) bovine serum albumin (BSA), 0.005% (w/v) Pluronic F-127 (Sigma)) were added. Then the binding competition was started by the addition of 2 μL of a solution of the GST-RIPK2 fusion protein (2.5 nM=>final conc. in the 5 μL assay volume is 1 nM) and of Anti-GST-Tb (1.25 nM=>final conc. in the 5 μL assay volume is 0.5 nM), a Lumi4®—Tb cryptate-conjugated anti-GST antibody from PerkinElmer (catalogue no 61GSTTAH), in assay buffer.
The resulting mixture was incubated 45 min at 22° C. to allow the formation of a complex between the Tracer 199, the fusion protein and Anti-GST-Tb. Subsequently, the amount of this complex was evaluated by measurement of the resonance energy transfer from the Tb-cryptate to the Tracer 199. Therefore, the fluorescence emissions at 620 nm and 665 nm after excitation at 337 nm were measured in a TR-FRET reader, e.g. a Pherastar FS (BMG Labtechnologies, Offenburg, Germany) or a Viewlux (PerkinElmer). The ratio of the emissions at 665 nm and at 620 nm was taken as the measure of the amount of the complex. The data were normalized (assay reaction without inhibitor=0% activity, all other assay components but no GST-RIPK2 fusion protein=−100% activity).
Table A1 below lists IC50 values of selected compounds of Formula (I) measured in the RIPK2 binding competition assay.
For orientation: TR-FRET usually uses a lanthanide donor and a delayed reading to cut background.

In assay [2] the target is T2, binding of His-XIAP(BIR2)-avi fusion protein to GST-RIPK2 fusion protein (RIPK2/XIAP) (Homo sapiens, UniProt O43353).
T2 construct: made in house; host or cells: baculovirus infected Sf9 cells
Put plainly: RIPK2-XIAP binding competition PPI assay (TR-FRET). Particulars: RIPK2/XIAP binding competition PPI assay; for Emax: Amax, read-out: PPI Amax bin; for IC50: read-out: PPI IC50 bin. In a few lines:
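Compounds (in DMSO, 100-fold stock) incubated 120 min at 23 °C with 1 nM GST-RIPK2 (aa 1-310) and 25 nM His-XIAP(BIR2 aa 152-231)-avi, plus anti-His-XL665 and anti-GST-Tb, in pH 7.5 Tris buffer. Read-out: 665/520 nm emission ratio. Normalized to no-inhibitor (0%) and 50 nM GSK583 (−100%); Amax binned A–D.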

The subject of assay [3] is NF-κB pathway (SEAP) in THP1-Dual cells. The assay is described as follows: THP-1 Dual cell SEAP assay (L18-MDP stimulated). The class given is cell-based. Conditions: Homo sapiens, THP1-Dual, read-out: NF-κB THP1 IC50 bin. Summed up:
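IC50 values derive from non-linear regression of % inhibition, calculated against DMSO/L18-MDP-treated wells after media-only subtraction. NF-κB SEAP activity was read at OD 620-655 nm (QUANTI-Blue, 2 h, 37 °C) from supernatants of THP1-Dual cells. Cells had been compound-treated 30 min before overnight (20-24 h) stimulation with 10 ng/mL final L18-MDP.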

From US20260137706A1, “METHODS OF TREATING INFLAMMATORY DISEASES” (INTERLINE THERAPEUTICS, INC., priority 2023, published 2026) come the findings set out here.

As a reminder, the IC50 is the midpoint of a concentration-inhibition curve.

Structures are written as SMILES.

T1 sequence (O43353 1-310): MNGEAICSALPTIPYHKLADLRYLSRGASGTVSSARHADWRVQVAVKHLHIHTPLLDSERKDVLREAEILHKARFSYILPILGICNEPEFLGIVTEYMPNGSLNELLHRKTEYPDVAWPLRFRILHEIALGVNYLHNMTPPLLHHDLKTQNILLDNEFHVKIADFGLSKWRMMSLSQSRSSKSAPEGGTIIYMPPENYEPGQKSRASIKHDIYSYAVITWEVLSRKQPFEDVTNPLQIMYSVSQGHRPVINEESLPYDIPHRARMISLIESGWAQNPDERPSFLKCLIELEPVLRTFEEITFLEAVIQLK
T2 sequence (O43353 1-310 limits assumed): as the sequence (O43353 1-310) above

For the molecule `COc1cc2ncc(-c3cccc(NS(=O)(=O)C4(CO)CC4)c3)n2cc1S(=O)(=O)C(C)(C)C` [Example 179, N-(3-(6-(tert-butylsulfonyl)-7-methoxyimidazo[1,2-a]pyridin-3-yl)phenyl)-1-(hydroxymethyl)cyclopropane-1-sulfonamide], the IC50 in assay [1] was 0.0025 to 0.02 µM; in assay [2], 0.0025 to 0.02 µM; in assay [3], > 1 µM. In assay [2], the Emax is 55 to 80%.

For the molecule `CC(C)(C)S(=O)(=O)c1cc2c(-c3cc(F)c(N)nc3F)cnn2cc1OCCO` [Example 14, 2-((3-(6-amino-2,5-difluoropyridin-3-yl)-5-(tert-butylsulfonyl)pyrazolo[1,5-a]pyridin-6-yl)oxy)ethan-1-ol], the results for the IC50 in assay [1], in assay [2] and in assay [3] were 0.001 to 0.0025 µM, 0.001 to 0.0025 µM and 0.05 to 0.25 µM, respectively. Further, the Emax in assay [2] is > 80%.

Take `CC(C)(C)S(=O)(=O)c1cn2c(-c3ccc4[nH]ccc4n3)cnc2cc1OCCO` [Example 278, 2-((6-(tert-butylsulfonyl)-3-(1H-pyrrolo[3,2-b]pyridin-5-yl)imidazo[1,2-a]pyridin-7-yl)oxy)ethan-1-ol]: the results for the IC50 in assay [1], in assay [2] and in assay [3] were > 0.02 µM, 0.0025 to 0.02 µM and > 1 µM, respectively. The Emax in assay [2] is 30 to 55%.

As for `COc1c(F)cc(-c2cnc3cc(OC[C@H](C)CO)c(S(=O)(=O)C(C)(C)C)cn23)cc1NS(C)(=O)=O` [Example 183, (R)-N-(5-(6-(tert-butylsulfonyl)-7-(3-hydroxy-2-methylpropoxy)imidazo[1,2-a]pyridin-3-yl)-3-fluoro-2-methoxyphenyl)methanesulfonamide], the IC50 in assay [1] was < 0.001 µM; in assay [2], < 0.001 µM; in assay [3] it was < 0.05 µM. Also, in assay [2], the Emax was 55 to 80%.

As for `COCC(C)(C)S(=O)(=O)c1cn2c(-c3cc(F)c(N)nc3F)cnc2cc1OC` [Example 167, 3,6-difluoro-5-(7-methoxy-6-((1-methoxy-2-methylpropan-2-yl)sulfonyl)imidazo[1,2-a]pyridin-3-yl)pyridin-2-amine], the IC50 was > 0.02 µM in assay [1], > 0.02 µM in assay [2] and > 1 µM in assay [3]. Also, the Emax in assay [2] was > 80%.

`CC(C)(C)S(=O)(=O)c1cn2c(-c3cnc4[nH]c(Cl)cc4c3)cnc2cc1OCCO` [Example 233, 2-((6-(tert-butylsulfonyl)-3-(2-chloro-1H-pyrrolo[2,3-b]pyridin-5-yl)imidazo[1,2-a]pyridin-7-yl)oxy)ethan-1-ol]: the IC50 is 0.0025 to 0.02 µM in assay [1], > 0.02 µM in assay [2] and > 1 µM in assay [3]. In addition, in assay [2], the Emax was < 30%.

Regarding `CC(C)(C)S(=O)(=O)c1cn2c(-c3cc(F)c(N)nc3F)cnc2cc1OCC1COC1` [Example 32, 5-(6-(tert-butylsulfonyl)-7-(oxetan-3-ylmethoxy)imidazo[1,2-a]pyridin-3-yl)-3,6-difluoropyridin-2-amine], the IC50 in assay [1] lay in the range of 0.001 to 0.0025 µM; in assay [2], 0.0025 to 0.02 µM; in assay [3], 0.05 to 0.25 µM. Also, the Emax in assay [2] is > 80%.

`COc1cc2ncc(-c3cccc(NS(=O)(=O)C4CCNCC4)c3)n2cc1S(=O)(=O)C(C)(C)C` [Example 158, N-(3-(6-(tert-butylsulfonyl)-7-methoxyimidazo[1,2-a]pyridin-3-yl)phenyl)piperidine-4-sulfonamide]: the IC50 was > 0.02 µM in assay [1], > 0.02 µM in assay [2] and > 1 µM in assay [3]. Besides, in assay [2], the Emax was > 80%.

`COc1cc2nc(N)c(-c3cc(F)c(N)nc3F)n2cc1S(=O)(=O)C(C)(C)C` [Example 40, 3-(6-amino-2,5-difluoropyridin-3-yl)-6-(tert-butylsulfonyl)-7-methoxyimidazo[1,2-a]pyridin-2-amine]: the IC50 was > 0.02 µM in assay [1], > 0.02 µM in assay [2] and > 1 µM in assay [3]. Further, the Emax in assay [2] lay in the range of 55 to 80%.

With `CC(C)(C)S(=O)(=O)c1cn2c(-c3cc(F)c(N)nc3F)cnc2cc1OC1CCN(CCO)C1` (centres unmarked) [Example 43, 2-(3-((3-(6-amino-2,5-difluoropyridin-3-yl)-6-(tert-butylsulfonyl)imidazo[1,2-a]pyridin-7-yl)oxy)pyrrolidin-1-yl)ethan-1-ol], the 50% inhibitory concentration (IC50) in assay [1] was 0.0025 to 0.02 µM; in assay [2], 0.0025 to 0.02 µM; in assay [3], > 1 µM. The Emax in assay [2] was > 80%.

Turning to `COc1cc2ncc(-c3cc(F)c(N)nc3F)n2cc1S(=O)(=O)N1CCNCC1` [Example 164, 3,6-difluoro-5-(7-methoxy-6-(piperazin-1-ylsulfonyl)imidazo[1,2-a]pyridin-3-yl)pyridin-2-amine], the IC50 is > 0.02 µM in assay [1], > 0.02 µM in assay [2] and > 1 µM in assay [3]. The Emax in assay [2] was > 80%.

As for `COc1cc(-c2cnc3cc(OCCO)c(S(=O)(=O)C(C)(C)C)cn23)cc(NS(=O)(=O)c2cnn(C)c2)c1OC` [Example 245, N-(5-(6-(tert-butylsulfonyl)-7-(2-hydroxyethoxy)imidazo [1,2-a]pyridin-3-yl)-2,3-dimethoxyphenyl)-1-methyl-1H-pyrazole-4-sulfonamide], the IC50 is 0.001 to 0.0025 µM in assay [1], < 0.001 µM in assay [2] and < 0.05 µM in assay [3]. Moreover, in assay [2], the Emax is > 80%.

As for `CC(C)(C)S(=O)(=O)c1cn2c(-c3cc(F)c(N)nc3F)cnc2cc1OCCCO` [Example 17, 3-((3-(6-amino-2,5-difluoropyridin-3-yl)-6-(tert-butylsulfonyl)imidazo[1,2-a]pyridin-7-yl)oxy)propan-1-ol], the IC50 in assay [1] was in the range of 0.001 to 0.0025 µM; in assay [2], 0.001 to 0.0025 µM; in assay [3] it was 0.05 to 0.25 µM. Besides, the Emax in assay [2] was > 80%.

On to `CCC(CO)COc1cc2ncc(-c3cc(F)c(N)nc3F)n2cc1S(=O)(=O)C(C)(C)C` (centres unmarked) [Example 48, 2-(((3-(6-amino-2,5-difluoropyridin-3-yl)-6-(tert-butylsulfonyl)imidazo[1,2-a]pyridin-7-yl)oxy)methyl)butan-1-ol], for which the IC50 was in the range of 0.001 to 0.0025 µM in assay [1], 0.0025 to 0.02 µM in assay [2] and 0.05 to 0.25 µM in assay [3]. The Emax in assay [2] was > 80%.

For the molecule `COc1cc2ncc(-c3cc(F)c(OC)c(NS(=O)(=O)c4ccccc4)c3)n2cc1S(=O)(=O)C(C)(C)C` [Example 281, N-(5-(6-(tert-butylsulfonyl)-7-methoxyimidazo[1,2-a]pyridin-3-yl)-3-fluoro-2-methoxyphenyl)benzenes ulfonamide], the results for the IC50 in assay [1], in assay [2] and in assay [3] were < 0.001 µM, < 0.001 µM and < 0.05 µM, respectively. The Emax in assay [2] is > 80%.

Regarding `CC(C)(C)S(=O)(=O)c1cn2c(-c3cc(Cl)c(N)nc3F)cnc2cc1NCCO` [Example 256, 2-((3-(6-amino-5-chloro-2-fluoropyridin-3-yl)-6-(tert-butylsulfonyl)imidazo [1,2-a]pyridin-7-yl)amino)ethan-1-ol], the IC50 is 0.001 to 0.0025 µM in assay [1], < 0.001 µM in assay [2] and < 0.05 µM in assay [3]. Moreover, the Emax in assay [2] was > 80%.

Regarding `COc1cc2ncc(-c3cc(F)c(N)nc3F)n2cc1S(=O)(=O)N1CCOCC1` [Example 163, 3,6-difluoro-5-(7-methoxy-6-(morpholinosulfonyl)imidazo[1,2-a]pyridin-3-yl)pyridin-2-amine], the results for the IC50 in assay [1], in assay [2] and in assay [3] were > 0.02 µM, > 0.02 µM and > 1 µM, respectively. For the same molecule, the Emax in assay [2] is > 80%.
